Experimental data taken from publication PMC9016807, “Metabolic, Pharmacokinetic, and Activity Profile of the Liver Stage Antimalarial (RC-12)” (ACS Omega, 2022).
“Also recorded” adds a separate entry of the source. Read-outs that look alike come from different tables or passages of the source.

How the values were obtained:
[1] = Metabolism in rat liver microsomes; format: in vitro ADME; conditions: 0.4 mg/mL protein; for CLint of authentic metabolite incubated / microsomal CLint at 1 μM: 1 μM substrate, NADPH, 37 °C, 60 min, single incubation; for microsomal CLint at 1 μM: rat, liver microsomes, read-out: CLint of authentic metabolite incubated; for average individual metabolite formed over a 60 min incubation of 1: substrate 1 at 1 μM, percentage of initial substrate concentration, ND = not detected
Method: (§1) Following the protocols described by Charman et al.,[28]1 was incubated at 37 °C with human, rat, and rhesus monkey liver microsomes. For the determination of intrinsic clearance, the substrate concentration was 1 μM and the protein concentration was 0.4 mg/mL; for qualitative metabolite identification studies, the substrate and protein concentrations were 10 μM and 1 mg/mL, respectively. The reaction was initiated by the addition of an NADPH-regenerating buffer system, and the samples were incubated for up to 60 (for Clint determination) or 180 min (for additional metabolite identification). Samples without the test compound and without NADPH were also incubated and used as controls. The reaction was quenched by protein precipitation with the addition of an equal volume of ice-cold acetonitrile solution (containing diazepam as an internal standard), followed by vortexing and centrifugation for 3 min at 10000 rpm. The supernatant was removed and analyzed by LC/MS. LC/MS analysis was conducted using a Waters Micromass Xevo G2 QTOF MS coupled to a Waters Acquity UPLC. For metabolite identification, a Supelco Ascentis Express Amide column (50 × 2.1 mm, 2.7 μm) was used with an acetonitrile–water gradient (containing 0.05% formic acid), a flow rate of 0.4 mL/min, a gradient cycle time of 6 min, and an injection volume of 5 μL. MS analysis was conducted using positive mode electrospray ionization under MSE acquisition mode, which allows simultaneous acquisition of MS spectra at low and high collision energies. The identity of putative metabolites was confirmed by the accurate mass and a comparison of the retention times and MS/MS fragmentation patterns with authentic metabolites where available. For metabolite quantitation, the method described below for the analysis of plasma samples was used.

[2] = Metabolism in rhesus monkey liver microsomes; format: in vitro ADME; conditions: 0.4 mg/mL protein; for microsomal CLint at 1 μM: rhesus monkey, liver microsomes, read-out: CLint of authentic metabolite incubated; for average individual metabolite formed over a 60 min incubation of 1: substrate 1 at 1 μM, percentage of initial substrate concentration, ND = not detected
Method: as §1

[3] = Metabolism in human liver microsomes; format: in vitro ADME; conditions: 0.4 mg/mL protein; for microsomal CLint at 1 μM: human, liver microsomes, read-out: CLint of authentic metabolite incubated; for average individual metabolite formed over a 60 min incubation of 1: substrate 1 at 1 μM, percentage of initial substrate concentration, ND = not detected
Method: as §1

[4] = tested on: P. vivax liver-stage parasites; assay: P. vivax liver-stage in vitro assay, radical cure mode; format: cell-based, Plasmodium vivax; conditions: Plasmodium vivax
Method: (§2) Compound 1 and its metabolites were tested in both prophylactic and radical cure modes for activity against P. vivax liver-stage parasites.[16],[17] In the prophylactic assay, compounds are added the day after sporozoite invasion into hepatocytes in order to characterize the compound activity against established liver forms with a parasitophorous vacuole membrane (as opposed to activity on preinvasion sporozoites) and prior to complete maturation of hypnozoites into drug-insensitive dormant forms, which appear at about 5 days postinvasion.[18] In the radical cure assay, compounds are added at day 5 postinfection to characterize activity against late-stage schizonts and mature PI4K inhibitor-insensitive hypnozoites.[19] In these experiments, the threshold for activity is 75% inhibition. […] Similarly, as previously described,[20] 10 μM concentrations of 1 and its metabolites were also tested for activity against P. cynomolgi schizont (large forms) and hypnozoite (small forms) liver-stage parasites cultured in rhesus monkey hepatocytes. In these experiments, the threshold for activity is 50% inhibition.
(§3) Compounds were prepared as 20 mM stock solutions in DMSO and tested in an eight-point semilog (1/3) dilution series from 20 μM in 384-well assay plates in both prophylactic and radical cure mode against P. vivax liver-stage parasites as previously described.[16] Following ethical approval from the Institutional Ethics Committee of the Thai Ministry of Public Health, the Ethical Review Committee of Faculty of Tropical Medicine, Mahidol University (TMEC 11-008 and 14-016), the Oxford Tropical Medicine Ethical Committee, Oxford University, England (OxTREC 17-11 and 40–14), and the Cambodian National Ethics Committee for Health Research (101NECHR), isolates of P. vivax infected blood were collected from patent volunteers in Tak province, Thailandm and Mondulkiri province, Cambodia. Samples were collected by venipuncture into heparin tubes prior to replacement of patient serum with nonimmune AB human serum and feeding to laboratory-reared Anopheles dirus cracens or An. dirus A mosquitoes via water-jacket artificial membrane feeders or the Hemotek insect feeding system (Hemotek, Blackburn, UK) set to maintain the bloodmeal temperature at 37 °C. […] Cryopreserved human hepatocytes (BioIVT, Baltimore, Maryland, USA) were thawed into InVitroGro CP Medium (BioIVT), quantified for viability by trypan blue dye exclusion, diluted to 800–1000 live cells per microliter, and 18000 live cells were plated into each well of a collagen-coated 384-well plate (Greiner, Monroe, NC, USA) by a 16-channel pipet (Finnpipette, Thermo Fisher Scientific, Waltham, MA). […]

[5] = tested on: P. cynomolgi schizont (large forms) and hypnozoite (small forms) liver-stage parasites; assay: P. cynomolgi liver-stage in vitro assay in rhesus monkey hepatocytes; format: cell-based; conditions: Plasmodium cynomolgi, Hepatocyte, in Macaca mulatta
Method: as §2

[6] = tested on: P. vivax liver-stage parasites; assay: P. vivax liver-stage in vitro assay, prophylactic mode; format: cell-based, Plasmodium vivax
Method: as §2, §3

[7] = Pharmacokinetics in rats after IV and PO administration; format: in vivo, male Sprague–Dawley rats; conditions: for metabolite in urine, percentage of the 1 dose: after IV administration of 1; for dose excreted: male, Sprague-Dawley, rat, urine, after oral administration of 1 at 27 mg/kg, read-out: recovery of metabolite in urine, percentage of the 1 dose
Method: Animal studies were conducted using established procedures in accordance with the Australian Code of Practice for the Care and Use of Animals for Scientific Purposes, and the study protocols were reviewed and approved by the Monash Institute of Pharmaceutical Sciences Animal Ethics Committee. The study was conducted in overnight-fasted male Sprague–Dawley rats weighing 266–292 g. Rats had access to water ad libitum throughout the pre- and postdose sampling period, and access to food was reinstated 4 h postdose. Compound 1 was administered intravenously as a 10 min constant rate infusion via an indwelling jugular vein cannula (1 mL per rat, n = 5 rats) and orally by gavage (10 mL/kg per rat, n = 2–3 rats), and samples of arterial blood and total urine were collected up to 24 h postdose. Arterial blood was collected directly into borosilicate vials (at 4 °C) containing heparin. Blood samples were centrifuged, and the supernatant plasma was removed and stored frozen (−80 °C) until analysis by LC-MS. Plasma samples and calibration standards (prepared in blank rat plasma) were processed by protein precipitation with a 2-fold volume of acetonitrile. LC-MS analysis was conducted using a Waters Micromass Quattro Premier triple-quadrupole mass spectrometer coupled to a Waters Acquity UPLC with a Phenomenex C18 Kinetex column (50 × 2.1 mm, 2.7 μm). Elution was achieved using a methanol–water gradient (containing 8.2 mM formic acid and 1.25 mM ammonium formate) with a flow rate of 0.6 mL/min, a gradient cycle time of 6 min, and an injection volume of 2 μL. MS detection was conducted using positive electrospray ionization with multiple reaction monitoring. Transitions (m/z), cone voltages (V), and CID voltages (V) were as follows: 1, 430.26 > 99.93, 40, 20; 2, 416.27 > 99.80, 30, 20; 3, 402.22 > 99.93, 35, 20; 4, 388.23 > 99.86, 35, 20; 5: 374.25 > 72.01, 35, 25; diazepam (285.25 > […], 40, 25) (used as an internal standard). The quantitation range in plasma was typically 1–10000 ng/mL, and the accuracy and precision were within ±10% and <10%, respectively, for each analyte. Urine samples were analyzed using either a 20- or 200-fold dilution with 50% acetonitrile and assayed against calibration standards prepared in the same solvent.

[8] = 1 μM substrate, NADPH, 37 °C, 60 min, single incubation
[9] = control drug, read-out: IC50 (hypnozoites)
[10] = control drug, read-out: IC50 (schizonts)

microsomal CLint at 1 μM [1] [µL/min/mg] | average individual metabolite formed over a 60 min incubation of 1 [1] [%] | microsomal CLint at 1 μM [2, 8] [µL/min/mg] | average individual metabolite formed over a 60 min incubation of 1 [2] [%] | microsomal CLint at 1 μM [3, 8] [µL/min/mg] | SMILES | also measured
4.4 | 25 | 7.3 | 1.4 | 6 | CCNCCN(CCNCC)c1cc(OC)c(OC)cc1Br [Compound 5, N,N-Bis[2-(ethylamino)ethyl]-2-bromo-4,5-dimethoxyaniline 1,5-naphthalenedisulfonate] | metabolite in urine, percentage of the 1 dose [7]: 1.2%; dose excreted [7]: 3%
24 | 64 | 19 | 20 | < 3 | CCNCCN(CCN(CC)CC)c1cc(OC)c(OC)cc1Br [Compound 3, N-[2-(Ethylamino)ethyl]-N-[2-(diethylamino)ethyl]-2-bromo-4,5-dimethoxyaniline 1,5-Naphthalenedisulfonate] | average individual metabolite formed over a 60 min incubation of 1 [3]: 1.6%; metabolite in urine, percentage of the 1 dose [7]: 1.7%; dose excreted [7]: 3.3%
45 | 6.4 | 12 | 2.4 | < 3 | CCNCCN(CCN(CC)CC)c1cc(OC)c(O)cc1Br [Compound 4, N-[2-(Ethylamino)ethyl]-N-[2-(diethylamino)ethyl]-2-bromo-4-hydroxy-5-methoxyaniline 1,5-Naphthalenedisulfonate] | IC50 ([6]; Plasmodium vivax, n = 3, read-out: IC50 against schizonts): 2630 nM; inhibition at 10 µM ([5]; 10 μM, first run, read-out: inhibition of growth of the schizont (large forms)): 70%; IC50 ([4]; n = 2, read-out: IC50 against schizonts): 15500 nM

Further lines, the compound ahead of its results:

SMILES | microsomal CLint at 1 μM [1] [µL/min/mg] | average individual metabolite formed over a 60 min incubation of 1 [1] [%] | microsomal CLint at 1 μM [2, 8] [µL/min/mg] | average individual metabolite formed over a 60 min incubation of 1 [2] [%] | microsomal CLint at 1 μM [3, 8] [µL/min/mg] | also measured
Br.Br.Br.CCN(CC)CCN(CCN(CC)CC)c1cc(O)c(OC)cc1Br [Compound 6, N,N-Bis[2-(diethylamino)ethyl]-2-bromo-5-hydroxy-4-methoxyaniline trihydrobromide] | – | – | – | – | – | CLint of authentic metabolite incubated [1]: very unstable; also recorded: highly unstable in all species; CLint of authentic metabolite incubated [2, 8]: very unstable; also recorded: highly unstable in all species; CLint of authentic metabolite incubated [3, 8]: very unstable; also recorded: highly unstable in all species
CC[C@@]1([C@@H]2O[C@@H]([C@H]3O[C@@](O)(CO)[C@H](C)C[C@@H]3C)C[C@@H]2C)CC[C@H]([C@]2(C)CC[C@]3(C[C@H](O)[C@@H](C)[C@@H]([C@@H](C)[C@@H](OC)[C@H](C)C(=O)O)O3)O2)O1 [monensin, reference compound] | – | – | – | – | – | IC50 [4, 9]: 102 nM; IC50 [4, 10]: 12.4 nM
COc1cc(NC(C)CCCN)c2ncccc2c1 (centres unmarked) [primaquine] | – | – | – | – | – | IC50 ([5]; read-out: IC50 against the hypnozoite (small forms)): 2700 nM; IC50 ([5]; read-out: IC50 against the schizont (large forms)): 1100 nM
CNC(=O)c1ccc(-c2cnc3cnc(C(=O)N(C)c4ccc(Cl)cc4)cn23)cc1 [KDU691, reference compound] | – | – | – | – | – | IC50 [6, 9]: 53.5 nM; IC50 [6, 10]: 11.4 nM
CCN(CC)CCN(CCN(CC)CC)c1cc(OC)c(O)cc1Br [Compound 2, N,N-Bis[2-(diethylamino)ethyl]-2-bromo-4-hydroxy-5-methoxyaniline 1,5-Naphthalenedisulfonate] | 264 | – | 8 | 15 | < 3 | CLint of authentic metabolite incubated [1]: highly unstable; average individual metabolite formed over a 60 min incubation of 1 [3]: 0.2%
